Source: ChEMBL document CHEMBL5120938, “Development of BET Inhibitors as Potential Treatments for Cancer: Optimization of Pharmacokinetic Properties” (ACS Med Chem Lett, 2022)

Tests used:
[1] = target: Bromodomain-containing protein 4 (Homo sapiens, UniProt O60885); experiment: Inhibition of N-terminal His6-tagged recombinant human BRD4 (44 to 168 residues) expressed in Escherichia coli BL21 (DE3) incubated for 60 mins by TR-FRET assay
[2] = Metabolic stability in alamethicin treated Sprague-Dawley rat liver microsomes assessed as half life pretreated for 5 mins followed by UDPGA addition and measured up to 45 mins by LC-MS/MS analysis; assay type: ADME, Microsome; settings: time < 50 min
[3] = Metabolic stability in alamethicin treated Beagle dog liver microsomes assessed as half life pretreated for 5 mins followed by UDPGA addition and measured up to 45 mins by LC-MS/MS analysis; assay type: ADME, Canis lupus familiaris, Microsome; settings: for half-life: Beagle, liver microsomes, time < 50 min
[4] = Inhibition of c-MYC expression in human JJN-3R cells measured after 4 hrs; assay type: functional, cell-based
[5] = Metabolic stability in alamethicin treated Beagle dog liver microsomes assessed as half life pretreated for 5 mins followed by NADPH addition and measured up to 45 mins by LC-MS/MS analysis; assay type: ADME, Canis lupus familiaris, Microsome; settings: time < 50 min
[6] = Metabolic stability in alamethicin treated cynomologus monkey liver microsomes assessed as half life pretreated for 5 mins followed by UDPGA addition and measured up to 45 mins by LC-MS/MS analysis; assay type: ADME, Macaca fascicularis, Microsome; settings: cynomolgus monkey, time < 50 min
[7] = Metabolic stability in alamethicin treated human liver microsomes assessed as half life pretreated for 5 mins followed by NADPH addition and measured up to 45 mins by LC-MS/MS analysis; assay type: ADME, Microsome; settings: time < 50 min
[8] = Metabolic stability in alamethicin treated CD-1 mouse liver microsomes assessed as half life pretreated for 5 mins followed by NADPH addition and measured up to 45 mins by LC-MS/MS analysis; assay type: ADME, Microsome; settings: time < 50 min
[9] = Metabolic stability in alamethicin treated cynomologus monkey liver microsomes assessed as half life pretreated for 5 mins followed by NADPH addition and measured up to 45 mins by LC-MS/MS analysis; assay type: ADME, Macaca fascicularis, Microsome; settings: cynomolgus monkey, time < 50 min
[10] = Antiproliferative activity against human JJN-3R cells assessed as inhibition of cell proliferation measured after 72 hrs by MTS assay; assay type: functional, cell-based
[11] = Metabolic stability in alamethicin treated Sprague-Dawley rat liver microsomes assessed as half life pretreated for 5 mins followed by NADPH addition and measured up to 45 mins by LC-MS/MS analysis; assay type: ADME, Microsome; settings: time < 50 min
[12] = Efflux ratio of apparent permeability across […] in human Caco-2 cells after 2 hrs by liquid scintillation counting analysis; assay type: ADME, cell-based; settings: caco-2, 2 h
[13] = Metabolic stability in alamethicin treated human liver microsomes assessed as half life pretreated for 5 mins followed by UDPGA addition and measured up to 45 mins by LC-MS/MS analysis; assay type: ADME, Microsome; settings: time < 50 min
[14] = Metabolic stability in alamethicin treated CD-1 mouse liver microsomes assessed as half life pretreated for 5 mins followed by UDPGA addition and measured up to 45 mins by LC-MS/MS analysis; assay type: ADME, Microsome; settings: time < 50 min
[15] = Volume of distribution in cynomologus monkey at 0.3 mg/kg, po or 0.1 mg/kg, iv; assay type: ADME, organism-based, Macaca fascicularis; settings: cynomolgus monkey, in vivo
[16] = Volume of distribution in mouse at 3 mg/kg, po or 1 mg/kg, iv; assay type: ADME, organism-based; settings: in vivo
[17] = Half life in rat at 1 mg/kg, iv; assay type: ADME, organism-based; settings: in vivo
[18] = Oral bioavailability in rat at 5 mg/kg; assay type: ADME, organism-based; settings: in vivo
[19] = Antitumor activity against human BR1077F cells xenografted in mouse assessed as tumor growth inhibition at 2 mg/kg, po QD treated as 5 days on and 2 days off regimen for 2 weeks starting from 26 days post tumor implantation; assay type: functional; settings: 336 h, read-out: TGI
[20] = AUC in mouse xenografted with human BR1077F cells at 2 mg/kg, po QD treated as 5 days on and 2 days off regimen for 2 weeks starting from 26 days post tumor implantation; assay type: ADME, organism-based; parameters: time 2 weeks, dose 2 mg/kg, route po; settings: in vivo
[21] = AUC in dog at 0.3 mg/kg, po; assay type: ADME, organism-based, Canis lupus familiaris; parameters: dose 0.3 mg/kg, route po; settings: in vivo
[22] = AUC in rat at 5 mg/kg, po; assay type: ADME, organism-based; parameters: dose 5 mg/kg, route po; settings: in vivo
[23] = Drug metabolism in human hepatocytes assessed as glucuronides formation at 5 uM measured after 2 hrs by LC/UV/MS analysis; assay type: ADME, cell-based, Hepatocyte
[24] = target: Bromodomain-containing protein 2 (Homo sapiens, UniProt P25440); experiment: Inhibition of BRD2 (unknown origin)
[25] = Oral bioavailability in dog at 0.3 mg/kg; assay type: ADME, organism-based, Canis lupus familiaris; settings: in vivo
[26] = Half life in dog at 0.1 mg/kg, iv; assay type: ADME, organism-based, Canis lupus familiaris; settings: in vivo
[27] = target: Bromodomain-containing protein 3 (Homo sapiens, UniProt Q15059); experiment: Inhibition of BRD3 (unknown origin)
[28] = Oral bioavailability in mouse at 3 mg/kg; assay type: ADME, organism-based; settings: in vivo
[29] = AUC in mouse at 3 mg/kg, po; assay type: ADME, organism-based; parameters: dose 3 mg/kg, route po; settings: in vivo
[30] = Oral bioavailability in cynomologus monkey at 0.3 mg/kg; assay type: ADME, organism-based, Macaca fascicularis; settings: cynomolgus monkey, in vivo
[31] = Volume of distribution in rat at 5 mg/kg, po or 1 mg/kg, iv; assay type: ADME, organism-based; settings: in vivo
[32] = Half life in mouse at 1 mg/kg, iv; assay type: ADME, organism-based; settings: in vivo
[33] = Half life in cynomologus monkey at 0.1 mg/kg, iv; assay type: ADME, organism-based, Macaca fascicularis; settings: cynomolgus monkey, in vivo
[34] = AUC in cynomologus monkey at 0.3 mg/kg, po; assay type: ADME, organism-based, Macaca fascicularis; parameters: dose 0.3 mg/kg, route po; settings: cynomolgus monkey, in vivo
[35] = Volume of distribution in dog at 0.3 mg/kg, po or 0.1 mg/kg, iv; assay type: ADME, organism-based, Canis lupus familiaris; settings: in vivo

Sequence of Bromodomain-containing protein 3 (Q15059 whole entry): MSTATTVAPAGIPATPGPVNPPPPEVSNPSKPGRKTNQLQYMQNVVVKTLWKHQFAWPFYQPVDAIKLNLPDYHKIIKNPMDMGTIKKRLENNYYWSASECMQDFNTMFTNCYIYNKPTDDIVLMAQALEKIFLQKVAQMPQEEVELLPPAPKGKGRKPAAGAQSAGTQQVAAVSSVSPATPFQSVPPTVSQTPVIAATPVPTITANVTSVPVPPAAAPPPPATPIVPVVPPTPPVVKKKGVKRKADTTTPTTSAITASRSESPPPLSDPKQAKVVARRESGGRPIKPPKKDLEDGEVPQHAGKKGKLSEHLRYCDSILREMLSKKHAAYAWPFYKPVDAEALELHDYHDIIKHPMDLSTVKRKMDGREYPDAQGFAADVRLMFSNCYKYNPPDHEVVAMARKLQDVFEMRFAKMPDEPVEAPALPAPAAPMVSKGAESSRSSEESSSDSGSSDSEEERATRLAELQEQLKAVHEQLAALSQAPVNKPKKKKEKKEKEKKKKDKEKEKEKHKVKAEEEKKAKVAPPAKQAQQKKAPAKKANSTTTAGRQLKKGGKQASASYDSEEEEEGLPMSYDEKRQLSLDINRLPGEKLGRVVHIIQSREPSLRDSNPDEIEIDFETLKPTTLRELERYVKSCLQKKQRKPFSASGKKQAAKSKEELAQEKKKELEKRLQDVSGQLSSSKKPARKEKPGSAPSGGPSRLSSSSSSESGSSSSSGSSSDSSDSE
Sequence of Bromodomain-containing protein 2 (P25440 whole entry): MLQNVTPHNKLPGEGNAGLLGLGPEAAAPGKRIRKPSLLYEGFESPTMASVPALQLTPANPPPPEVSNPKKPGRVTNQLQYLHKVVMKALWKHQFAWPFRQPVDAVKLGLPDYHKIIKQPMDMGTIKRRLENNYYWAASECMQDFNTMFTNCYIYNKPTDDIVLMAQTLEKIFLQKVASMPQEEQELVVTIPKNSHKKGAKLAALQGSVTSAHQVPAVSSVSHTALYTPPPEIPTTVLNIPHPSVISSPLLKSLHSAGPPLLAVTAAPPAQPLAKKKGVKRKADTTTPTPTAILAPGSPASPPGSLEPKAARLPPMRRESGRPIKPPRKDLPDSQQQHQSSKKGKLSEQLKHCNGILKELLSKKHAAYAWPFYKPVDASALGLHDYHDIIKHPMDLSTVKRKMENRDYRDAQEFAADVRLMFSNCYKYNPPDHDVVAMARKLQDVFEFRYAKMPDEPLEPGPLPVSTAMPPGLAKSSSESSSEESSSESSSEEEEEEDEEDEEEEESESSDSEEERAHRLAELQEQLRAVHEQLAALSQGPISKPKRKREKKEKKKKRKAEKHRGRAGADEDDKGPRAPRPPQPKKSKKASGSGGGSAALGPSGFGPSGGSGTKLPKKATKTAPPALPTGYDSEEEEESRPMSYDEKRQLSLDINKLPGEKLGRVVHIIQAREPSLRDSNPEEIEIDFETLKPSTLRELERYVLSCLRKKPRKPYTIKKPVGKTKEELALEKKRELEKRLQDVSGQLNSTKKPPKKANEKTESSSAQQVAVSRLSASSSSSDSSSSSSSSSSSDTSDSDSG

## [2H]C([2H])([2H])c1nnn(C)c1-c1cnc2c3ccc(C(C)(C)O)c(F)c3n([C@H](c3ccccc3)C3CCOCC3)c2c1
[1]
  IC50: 1 nM
[2]
  half-life: 6 min
[3]
  half-life: 120 min
[4]
  IC50: 1.5 nM
[5]
  half-life: 69 min
[6]
  half-life: 120 min
[7]
  half-life: 67 min
[8]
  half-life: 42 min
[9]
  half-life: 29 min
[10]
  IC50: 5 nM
[11]
  half-life: 38 min
[12]
  Ratio: 1.4
[13]
  half-life: 120 min
[14]
  half-life: 120 min

## [2H]C([2H])([2H])c1nnn(C)c1-c1cnc2c3cc(F)c(C(C)(C)O)cc3n([C@H](c3ccccc3)C3CCOCC3)c2c1
[15]
  Vd: 1.3 L/kg
[2]
  half-life: 120 min
[16]
  Vd: 1.4 L/kg
[3]; microsomes, 50 min
  t1/2: 120 min
[17]
  half-life: 246 min
[4]
  IC50: 2 nM
[5]
  half-life: 32 min
[18]
  bioavailability: 74%
[19]
  inhibition in vivo at 2 mg/kg: 88%
[20]
  AUC at 336 h: 4.8 µM·h
[21]
  AUC: 0.55 µM·h
[22]
  AUC: 6.6 µM·h
[6]
  half-life: 120 min
[7]
  half-life: 52 min
[23]
  Drug metabolism: Metabolite_Notdetected
[24]
  IC50: 0.2 nM
[8]
  half-life: 41 min
[25]
  bioavailability: 73%
[26]
  half-life: 456 min
[27]
  IC50: 1.6 nM
[9]
  half-life: 10 min
[28]
  bioavailability: 100%
[29]
  AUC: 25 µM·h
[30]
  bioavailability: 85%
[31]
  Vd: 2.9 L/kg
[10]
  IC50: 6 nM
[11]
  half-life: 46 min
[12]
  Ratio: 1.8
[32]
  half-life: 204 min
[13]
  half-life: 120 min
[33]
  half-life: 240 min
[14]
  half-life: 120 min
[34]
  AUC: 1.9 µM·h
[35]
  Vd: 5.8 L/kg

## [2H]C([2H])([2H])c1nnn(C)c1-c1cnc2c3c(F)cc(C(C)(C)O)cc3n([C@H](c3ccccc3)C3CCOCC3)c2c1
[1]
  IC50: 8 nM
[2]
  half-life: 120 min
[3]
  half-life: 120 min
[4]
  IC50: 4.5 nM
[5]
  half-life: 40 min
[6]
  half-life: 120 min
[7]
  half-life: 63 min
[8]
  half-life: 48 min
[9]
  half-life: 32 min
[10]
  IC50: 10 nM
[11]
  half-life: 62 min
[12]
  Ratio: 9.7
[13]
  half-life: 120 min
[14]
  half-life: 120 min

## Cc1nnn(C)c1-c1cnc2c3ccc(C(C)C)cc3n([C@H](c3ccccc3)C3CCOCC3)c2c1
[1]
  IC50: 4 nM
[4]
  IC50: 9 nM
[10]
  IC50: 39 nM

## [2H]C([2H])([2H])c1nnn(C)c1-c1cnc2c3ccc(S(C)(=O)=O)cc3n([C@H](c3ccccc3)C3CCOCC3)c2c1
[1]
  IC50: 1.7 nM
[4]
  IC50: 2 nM
[5]
  half-life: 34 min
[7]
  half-life: 75 min
[8]
  half-life: 22 min
[9]
  half-life: 40 min
[10]
  IC50: 13 nM
[11]
  half-life: 47 min
[12]
  Ratio: 4.5

## [2H]C([2H])([2H])c1nnn(C)c1-c1cnc2c3ccc(C(C)(C)O)cc3n([C@H](c3ccccc3)C3CCOCC3)c2c1
[1]
  IC50: 1.2 nM
[4]
  IC50: 0.8 nM
[5]
  half-life: 37 min
[7]
  half-life: 59 min
[8]
  half-life: 25 min
[9]
  half-life: 29 min
[10]
  IC50: 6 nM
[11]
  half-life: 43 min
[12]
  Ratio: 6.1

## COC(C)(C)c1ccc2c3ncc(-c4c(C)nnn4C)cc3n([C@H](c3ccccc3)C3CCOCC3)c2c1
[1]
  IC50: 1.4 nM
[4]
  IC50: 3 nM
[7]
  half-life: 3 min
[8]
  half-life: 7 min
[10]
  IC50: 7 nM
[11]
  half-life: 18 min
